PubChem BioAssay AID1919002 (Molecular Pharmacology Branch, DTP, NCI, 2023)

Test system: 743489-274-T-PDC complex spheroid growth
Experiment: Anticancer human tumor 743489-274-T-PDC patient-derived renal cell carcinoma cell line growth inhibition [AhR]
Settings: for IC50: curve of first compound; for viability, T/C: stronger effect = lower value
Procedure, shortened: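 Agents were dosed in half-log steps down from roughly clinical Cmax, or from 10 microM where Cmax was unknown, alone and with AhR antagonists. Read-out: percent test/control growth of tumor spheroids containing HUVEC and MSC stromal cells.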

[1] = second compound 0.1 µM, first compound 0.00316 µM
[2] = second compound 0.1 µM, first compound 0.01 µM
[3] = second compound 0.1 µM, first compound 0.0316 µM
[4] = second compound 0.1 µM, first compound 0.1 µM
[5] = second compound 0.316 µM, first compound 0.00316 µM
[6] = second compound 0.316 µM, first compound 0.01 µM
[7] = second compound 0.316 µM, first compound 0.0316 µM
[8] = second compound 0.316 µM, first compound 0.1 µM
[9] = second compound 1 µM, first compound 0.00316 µM
[10] = second compound 1 µM, first compound 0.01 µM
[11] = second compound 1 µM, first compound 0.0316 µM
[12] = second compound 1 µM, first compound 0.1 µM
[13] = second compound 3.16 µM, first compound 0.00316 µM
[14] = second compound 3.16 µM, first compound 0.01 µM
[15] = second compound 3.16 µM, first compound 0.0316 µM
[16] = second compound 3.16 µM, first compound 0.1 µM
[17] = second compound 10 µM, first compound 0.00316 µM
[18] = second compound 10 µM, first compound 0.01 µM
[19] = second compound 10 µM, first compound 0.0316 µM
[20] = second compound 10 µM, first compound 0.1 µM
[21] = second compound 0.1 µM, first compound 0.316 µM
[22] = second compound 0.1 µM, first compound 1 µM
[23] = second compound 0.1 µM, first compound 3.16 µM
[24] = second compound 0.1 µM, first compound 10 µM
[25] = second compound 0.316 µM, first compound 0.316 µM
[26] = second compound 0.316 µM, first compound 1 µM
[27] = second compound 0.316 µM, first compound 3.16 µM
[28] = second compound 0.316 µM, first compound 10 µM
[29] = second compound 1 µM, first compound 0.316 µM
[30] = second compound 1 µM, first compound 1 µM
[31] = second compound 1 µM, first compound 3.16 µM
[32] = second compound 1 µM, first compound 10 µM
[33] = second compound 3.16 µM, first compound 0.316 µM
[34] = second compound 3.16 µM, first compound 1 µM
[35] = second compound 3.16 µM, first compound 3.16 µM
[36] = second compound 3.16 µM, first compound 10 µM
[37] = second compound 10 µM, first compound 0.316 µM
[38] = second compound 10 µM, first compound 1 µM
[39] = second compound 10 µM, first compound 3.16 µM
[40] = second compound 10 µM, first compound 10 µM
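Note: spheroids exposed to agents for 7 days before readout.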
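Throughout, for viability, T/C: 100% = DMSO vehicle control wells.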

SMILES | IC50 (second compound 0.1 µM) | IC50 (second compound 0.316 µM) | IC50 (second compound 1 µM) | IC50 (second compound 3.16 µM) | IC50 (second compound 10 µM) | viability, T/C [3] | viability, T/C [4] | viability, T/C [7] | viability, T/C [8] | viability, T/C [11] | viability, T/C [12] | viability, T/C [15] | viability, T/C [16] | viability, T/C [19] | viability, T/C [20] | viability, T/C [21] | viability, T/C [22] | viability, T/C [25] | viability, T/C [26] | viability, T/C [29] | other results
CC[C@@]1(O)C(=O)OCc2c1cc1n(c2=O)Cc2cc3c(CN(C)C)c(O)ccc3nc2-1 + Cc1cncc(-c2nc(NCCc3c[nH]c4ccccc34)c3ncn(C(C)C)c3n2)c1 | > 100 nM | > 100 nM | > 100 nM | > 100 nM | > 100 nM | 93.1% | 97.4% | 92.8% | 90.4% | 86.5% | 84.3% | 107% | 84.7% | 123% | 114% | – | – | – | – | – | viability, T/C (second compound 0.1 µM, first compound 0.000316 µM): 100%; viability, T/C (second compound 0.1 µM, first compound 0.001 µM): 108%; viability, T/C [1]: 98.7%; viability, T/C [2]: 94.5%; viability, T/C (second compound 0.316 µM, first compound 0.000316 µM): 105%; viability, T/C (second compound 0.316 µM, first compound 0.001 µM): 110%; viability, T/C [5]: 105%; viability, T/C [6]: 98.6%; viability, T/C (second compound 1 µM, first compound 0.000316 µM): 101%; viability, T/C (second compound 1 µM, first compound 0.001 µM): 105%; viability, T/C [9]: 101%; viability, T/C [10]: 89.8%; viability, T/C (second compound 3.16 µM, first compound 0.000316 µM): 113%; viability, T/C (second compound 3.16 µM, first compound 0.001 µM): 109%; viability, T/C [13]: 129%; viability, T/C [14]: 101%; viability, T/C (second compound 10 µM, first compound 0.000316 µM): 136%; viability, T/C (second compound 10 µM, first compound 0.001 µM): 123%; viability, T/C [17]: 133%; viability, T/C [18]: 123%
COc1cc(C2c3cc4c(cc3C(OC3OC5COC(C)OC5C(O)C3O)C3COC(=O)C23)OCO4)cc(OC)c1O (stereo not given) + Cc1cncc(-c2nc(NCCc3c[nH]c4ccccc34)c3ncn(C(C)C)c3n2)c1 | > 10000 nM | > 10000 nM | > 10000 nM | > 10000 nM | > 10000 nM | 97.7% | 88.2% | 94.1% | 82.6% | 90.2% | 87.6% | 95.3% | 87.9% | 131% | 117% | 88% | 96.8% | 78.2% | 80% | 80.5% | viability, T/C [23]: 82.3%; viability, T/C [24]: 74.6%; viability, T/C [27]: 75.2%; viability, T/C [28]: 78.5%; viability, T/C [30]: 78.1%; viability, T/C [31]: 80.4%; viability, T/C [32]: 80.8%; viability, T/C [33]: 91.4%; viability, T/C [34]: 92.6%; viability, T/C [35]: 80.1%; viability, T/C [36]: 74.8%; viability, T/C [37]: 95.6%; viability, T/C [38]: 110%; viability, T/C [39]: 102%; viability, T/C [40]: 100%
COc1cccc2c1C(=O)c1c(O)c3c(c(O)c1C2=O)CC(O)(C(=O)CO)CC3OC1CC(N)C(O)C(C)O1 (stereo not given) + Cc1cncc(-c2nc(NCCc3c[nH]c4ccccc34)c3ncn(C(C)C)c3n2)c1 | > 10000 nM | 5540 nM | 2470 nM | 1350 nM | 825 nM | 92.1% | 92.6% | 89.7% | 92.5% | 89.6% | 97% | 91.3% | 91.6% | 111% | 96% | 90.2% | 80.4% | 88.3% | 84.8% | 92.2% | viability, T/C [23]: 96.5%; viability, T/C [24]: 50.4%; viability, T/C [27]: 70.6%; viability, T/C [28]: 28.4%; viability, T/C [30]: 89.6%; viability, T/C [31]: 39.2%; viability, T/C [32]: 0.75%; viability, T/C [33]: 93.6%; viability, T/C [34]: 67.6%; viability, T/C [35]: 0.25%; viability, T/C [36]: 0.22%; viability, T/C [37]: 93.6%; viability, T/C [38]: 42%; viability, T/C [39]: 0.4%; viability, T/C [40]: 0.25%
Nc1ncn(C2CC(O)C(CO)O2)c(=O)n1 (stereo not given) + Cc1cncc(-c2nc(NCCc3c[nH]c4ccccc34)c3ncn(C(C)C)c3n2)c1 | > 1000 nM | > 1000 nM | > 1000 nM | > 1000 nM | > 1000 nM | 104% | 95.1% | 93.5% | 96.3% | 98.5% | 93% | 104% | 100% | 131% | 109% | 92% | 96% | 94.8% | 94.4% | 106% | viability, T/C [1]: 105%; viability, T/C [2]: 98.7%; viability, T/C [5]: 99.4%; viability, T/C [6]: 99.8%; viability, T/C [9]: 109%; viability, T/C [10]: 107%; viability, T/C [30]: 93.7%; viability, T/C [13]: 104%; viability, T/C [14]: 108%; viability, T/C [33]: 103%; viability, T/C [34]: 98.4%; viability, T/C [17]: 113%; viability, T/C [18]: 114%; viability, T/C [37]: 107%; viability, T/C [38]: 120%
